Results published in ChEMBL document CHEMBL1201862, “PubChem BioAssay data set” (2004).
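Step 1: Grow cells in 96-well plates. Step 2: Expose to compound for 48 hours at 5 concentrations. Step 3: Interpolate endpoints linearly; if unreached, use highest concentration. GI50 = concentration required for 50% inhibition of growth.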 The source made the active and inactive calls. Cut-off read from the data, not from the text of the source: active = GI50 up to about 1.1 µM and inactive = higher.

Assays:
Assay in all cases: NCI tumour cell line growth inhibition, 48 h
[1] = system: 786-0
[2] = system: A498
[3] = system: A549
[4] = system: ACHN
[5] = system: CAKI-1
[6] = system: CCRF-CEM
[7] = system: COLO 205
[8] = system: DMS-114
[9] = system: DMS-273
[10] = system: EKVX
[11] = system: HCC 2998
[12] = system: HCT-116
[13] = system: HCT-15
[14] = system: HL-60
[15] = system: HOP-62
[16] = system: HT-29
[17] = system: IGROV-1
[18] = system: K562
[19] = system: KM-20L2
[20] = system: KM12
[21] = system: LOX IMVI
[22] = system: M14
[23] = system: MOLT-4
[24] = system: Malme-3M
[25] = system: NCI-H226
[26] = system: NCI-H23
[27] = system: NCI-H460
[28] = system: NCI-H522
[29] = system: OVCAR-3
[30] = system: OVCAR-4
[31] = system: OVCAR-5
[32] = system: OVCAR-8
[33] = system: RPMI-8226
[34] = system: RXF 393
[35] = system: SF-268
[36] = system: SF-295
[37] = system: SF-539
[38] = system: SK-MEL-28
[39] = system: SK-MEL-2
[40] = system: SK-MEL-5
[41] = system: SK-OV-3
[42] = system: SN12C
[43] = system: SNB-19
[44] = system: SNB-75
[45] = system: SNB-78
[46] = system: SR
[47] = system: SW-620
[48] = system: TK-10
[49] = system: U-251
[50] = system: UACC-257
[51] = system: UACC-62
[52] = system: UO-31
[53] = system: BT-549
[54] = system: DU-145
[55] = system: HOP-92
[56] = system: Hs-578T
[57] = system: MCF7
[58] = system: MDA-MB-231
[59] = system: MDA-MB-435
[60] = system: MDA-N
[61] = system: NCI/ADR-RES
[62] = system: PC-3
[63] = system: T47D

`CN(C)C(=S)/N=c1\ss/c(=N\C(=S)N(C)C)n1-c1cccc(Cl)c1` was tested, and the GI50 [1] was > 100 µM (inactive), the GI50 [2] was > 100 µM (inactive) and the GI50 [3] was > 100 µM (inactive). For the same molecule, the GI50 [4] was > 100 µM (inactive), the GI50 [5] was > 100 µM (inactive) and the GI50 [6] was > 100 µM (inactive). For the same molecule, the GI50 [7] was > 100 µM (inactive), the GI50 [8] was > 100 µM (inactive) and the GI50 [9] was > 100 µM (inactive). For the same molecule, the GI50 [10] was > 100 µM (inactive), the GI50 [11] was > 100 µM (inactive) and the GI50 [12] was > 100 µM (inactive). The GI50 [13] was > 100 µM, the GI50 [14] was > 100 µM (inactive) and the GI50 [15] was > 100 µM (inactive). For the same molecule, the GI50 [16] was > 100 µM (inactive), the GI50 [17] was > 100 µM (inactive) and the GI50 [18] was > 100 µM (inactive). For the same molecule, the GI50 [19] was > 100 µM (inactive), the GI50 [20] was > 100 µM (inactive) and the GI50 [21] was > 100 µM (inactive). The GI50 [22] was > 100 µM (inactive), the GI50 [23] was > 100 µM (inactive) and the GI50 [24] was > 100 µM (inactive). The GI50 [25] was > 100 µM (inactive), the GI50 [26] was > 100 µM (inactive) and the GI50 [27] was > 100 µM (inactive). The GI50 [28] was > 100 µM (inactive), the GI50 [29] was > 100 µM (inactive) and the GI50 [30] was > 100 µM (inactive). The GI50 [31] was > 100 µM (inactive), the GI50 [32] was > 100 µM (inactive) and the GI50 [33] was > 100 µM (inactive). For the same molecule, the GI50 [34] was 79.6 µM (inactive), the GI50 [35] was > 100 µM (inactive) and the GI50 [36] was > 100 µM (inactive). The GI50 [37] was > 100 µM (inactive), the GI50 [38] was > 100 µM (inactive) and the GI50 [39] was > 100 µM (inactive). For the same molecule, the GI50 [40] was > 100 µM (inactive), the GI50 [41] was > 10 µM (inactive) and the GI50 [42] was > 100 µM (inactive). The GI50 [43] was > 100 µM (inactive), the GI50 [44] was 36.6 µM (inactive) and the GI50 [45] was > 100 µM (inactive). The GI50 [46] was > 100 µM (inactive), the GI50 [47] was > 100 µM (inactive) and the GI50 [48] was > 100 µM (inactive). The GI50 [49] was > 100 µM (inactive), the GI50 [50] was > 100 µM (inactive) and the GI50 [51] was > 100 µM (inactive). The GI50 [52] was > 100 µM (inactive).

With `Nc1nc(Cl)cc(NCCC2(CO)CCC2)n1` the GI50 [1] was > 100 µM (inactive), the GI50 [2] was > 100 µM (inactive) and the GI50 [3] was > 100 µM (inactive). For the same molecule, the GI50 [4] was > 100 µM (inactive), the GI50 [53] was > 100 µM (inactive) and the GI50 [5] was > 100 µM (inactive). The GI50 [6] was > 100 µM (inactive), the GI50 [7] was > 100 µM (inactive) and the GI50 [54] was > 100 µM (inactive). The GI50 [10] was 4.73 µM (inactive), the GI50 [11] was > 100 µM (inactive) and the GI50 [12] was > 100 µM (inactive). For the same molecule, the GI50 [13] was > 100 µM, the GI50 [14] was > 100 µM (inactive) and the GI50 [15] was > 100 µM (inactive). The GI50 [55] was 93.3 µM (inactive), the GI50 [16] was > 100 µM (inactive) and the GI50 [56] was 45.4 µM (inactive). The GI50 [17] was > 100 µM (inactive), the GI50 [18] was > 100 µM (inactive) and the GI50 [20] was > 100 µM (inactive). The GI50 [21] was > 100 µM (inactive), the GI50 [22] was > 100 µM (inactive) and the GI50 [57] was > 100 µM (inactive). For the same molecule, the GI50 [58] was > 100 µM (inactive), the GI50 [59] was > 100 µM (inactive) and the GI50 [60] was > 100 µM (inactive). For the same molecule, the GI50 [23] was > 100 µM (inactive), the GI50 [24] was > 100 µM (inactive) and the GI50 [25] was > 100 µM (inactive). For the same molecule, the GI50 [26] was > 100 µM (inactive), the GI50 [27] was > 100 µM (inactive) and the GI50 [28] was > 100 µM (inactive). For the same molecule, the GI50 [61] was > 100 µM (inactive), the GI50 [29] was > 100 µM (inactive) and the GI50 [30] was > 100 µM (inactive). The GI50 [31] was > 100 µM (inactive), the GI50 [32] was > 100 µM (inactive) and the GI50 [62] was > 100 µM (inactive). The GI50 [33] was > 100 µM (inactive), the GI50 [34] was > 100 µM (inactive) and the GI50 [35] was > 100 µM (inactive). The GI50 [36] was > 100 µM (inactive), the GI50 [37] was > 100 µM (inactive) and the GI50 [38] was > 100 µM (inactive). For the same molecule, the GI50 [39] was > 100 µM (inactive), the GI50 [40] was > 100 µM (inactive) and the GI50 [41] was > 100 µM (inactive). The GI50 [42] was > 100 µM (inactive), the GI50 [43] was > 100 µM (inactive) and the GI50 [44] was > 100 µM (inactive). The GI50 [46] was > 100 µM (inactive), the GI50 [47] was > 100 µM (inactive) and the GI50 [63] was > 100 µM (inactive). For the same molecule, the GI50 [48] was > 100 µM (inactive), the GI50 [49] was > 100 µM (inactive) and the GI50 [50] was > 100 µM (inactive). For the same molecule, the GI50 [51] was > 100 µM (inactive) and the GI50 [52] was > 100 µM (inactive).
